Patent US20030118636A1, “Delivery of small hydrophilic molecules packaged into lipid vesicles” (priority 2001, published 2003)
Like-named read-outs stand apart in the source and are kept apart here. Blank lines part the entries; values can stand above or below the molecule they belong to.

How the values were obtained:
MscL mutant G22C [1] = target: T1, MscL mutant G22C (Escherichia coli, UniProt P0A742, G22C); type: biochemical, E. coli; details: for kinetics of calcein release compared to MTSET: 2.5 mM MTSEA, 10 mM MTSES
T1 construct: expressed in transfected cells
Description: Samples were prepared, and calcein efflux was monitored as described in examples 1 and 2A.
The membrane reconstitution mixture was incubated for 30 min. at room temperature and 40 mg of detergent-absorbing Bio-Beads SM-2 (Bio-Rad, Inc.) was added and incubated at 4° C. for 30 min. Next, 400 mg Bio-Beads were added and incubated overnight at 4° C. All steps were performed under mild agitation. Samples were prepared for calcein efflux assay as described in example 1.

MscL mutant G22C [2] = target: T1, MscL mutant G22C; type: biochemical, E. coli
Description: FIGS. 10A-10D. […] Pressure in the pipette, relative to atmospheric, is shown in the lower traces of FIGS. 10A and 10B, and recordings of the current through a cell attached patch of a spheroplast are shown in the upper traces of FIGS. 10A and 10B. […] Buffer: 200 mM KCl, 90 mM MgCl2, 110 mM CaCl2, 5 mM HEPES, pH 6.0. FIGS. 10C and 10D show the histograms of the conductivity preferences of FIGS. 10A and 10B, respectively.
FIGS. 14A-14D. […] 5 μl of G22C spheroplasts were incubated with IMI (2 mM final concentration) or with patch buffer overnight at 4° C. The next day, currents through cell-attached patches held at +20 mV were recorded for unlabeled (FIG. 14A) and labeled (FIG. 14B) proteins and histograms showing the conductance states of each recording are illustrated in FIG. 14C and FIG. 14D, respectively.
Expression, purification, membrane reconstitution, and patch clamp analysis were performed as described in Example 1 or as described below.
Giant spheroplasts were prepared as explained before (Blount, P. et al., Methods Enzymol. Vol. 294:458-482, 1999).

[3] = Urinary excretion of IOT after subcutaneous injection in conscious rats; type: in vivo, rat; details: free IOT
Description: DOPC/DOPS (90:10, mol/mol) and DOPC/DOPE liposomes (70:30, mol/mol) were tested.
Male Wistar rats remained conscious throughout the study. To increase the resolution time, the diuretic furosemide (10 mg/kg dose s.c.) was given in the morning, 7 hours before administration of the sample. Urine was collected automatically with a 1 hour resolution. The concentration of IOT in the urine was measured by HPLC.

[4] = rat; cited from earlier work
MscL mutant G22C [5] = target: T1, MscL mutant G22C; details: no tension applied (Yoshimura et al.); cited from earlier work
[6] = free compound
Description: The effect of drug formulation on the rate of drug release in vivo was tested in the rat by external counting of radioactivity. The model was based on liposomal formulations that remain at the subcutaneous site of administration with an encapsulated model drug which, when released, was rapidly removed from the subcutaneous site of injection and excreted into the urinary bladder.
Male Wistar rats were anaesthetized using iso-flurane O2/NO throughout the study. Liposome encapsulated MAG3 in a 0.5 ml volume was injected subcutaneously (in the neck) and accumulation of radioactivity in the urinary bladder was constantly monitored by external counting using a gamma-camera (window: 140 keV, 250 keV width, 1 min. time resolution). At the end of the study (after 40 min.), a 10 times higher dose of free MAG3 was administered subcutaneously or intravenously to measure the urinary excretion rates of those formulations.

[7] = humans; cited from earlier work
MscL mutant G22C [8] = target: T1, MscL mutant G22C; experiment: FITC-insulin efflux from liposomes with MscL mutant G22C (filter assay); type: biochemical, E. coli; details: 1 mM MTSET; DOPC:DOPS 9:1 liposomes with MscL mutant G22C
Description: Insulin and fluorescein isothiocyanate (FITC) were obtained from Sigma (St. Louis, Mo., USA). Insulin (23 mg) was reacted with a four-fold molar ratio of FITC in 0.1 N borate buffer, pH 9.0, for 60 min. The pH was lowered to 7.5 with 0.1 N boric acid and the solution was extensively dialyzed, using a dialysis membrane with a molecular weight cut-off of 2,000 Da, for 96 hours against water at 4° C. with frequent water changes. Absorption spectra of the dialyzed sample were used to quantify the protein concentration and the stoichiometry of labeling. Concentrations of FITC and insulin were both 0.1 mM. The labeled insulin was encapsulated by three freeze-thaw cycles, followed by extrusion through a 400 nm polycarbonate membrane. The proteoliposomes containing labeled insulin were separated from free labeled insulin by using sephadex G-50 column chromatography equilibrated with 145 mM NaCl, 300 mM Sucrose, 25 mM Tris.HCl and 1 mM EDTA, pH 8.0.
Samples were taken at different time points and Triton was added as a control for maximum fluorescence (100%). Samples were filtered over a 450 nm Cellulose Nitrate filter (Schleicher & Schuell BA85). The filtrate of 2 ml was retained and the fluorescence of 200 I11 of each filtrate was monitored in an fl600 plate reader (Bio-Tek). All experiments were performed in triplicate.

MscL = target: T2, MscL (Escherichia coli, UniProt P0A742, G22C); type: biochemical, E. coli
T2 construct: made in house; host or cells: E. coli PB104

[9] = DOPC:DOPS 90:10 liposomes with MscL mutant G22C
[10] = 1 mM MTSET, DOPC:DOPS 90:10 liposomes with MscL mutant G22C

T1 sequence (P0A742 2-136 G22C): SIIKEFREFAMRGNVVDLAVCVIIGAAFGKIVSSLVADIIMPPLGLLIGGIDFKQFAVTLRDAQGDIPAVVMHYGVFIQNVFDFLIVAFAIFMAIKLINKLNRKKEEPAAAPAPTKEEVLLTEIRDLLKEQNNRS
T2 sequence (P0A742 2-136 G22C): as above

Molecule: COC(=O)C(I)Cc1cnc[nH]1 (stereo not shown) [IMI, methyl 2-iodo-3-(5-imidazolyl)propanoate]
channel state in calcein efflux assays (MscL mutant G22C [1]; IMI labeled MscL mutant G22C, pH 7.0 and 8.0 (data not shown)): tendency to stay open at pH 7.0 and 8.0
ratio of tension sensitivity of MscL over MscS (MscL mutant G22C [2]; spheroplasts, pH 6): 1.48

first phase urinary excretion [3]: completed in the first couple of hours
Molecule: CNC(=O)c1c(I)c(NC(C)=O)c(I)c(C(=O)O)c1I [IOT, Iodo-thalamate]
excretion via glomerular filtration [4]: 1 ml.min^−1.100 g rat

Molecule: sodium (2-sulfonatoethyl) methane thiosulfonate [MTSES]
effect of attachment to the cysteine on gating under patch clamp (MscL mutant G22C [5]): gate spontaneously
kinetics of calcein release compared to MTSET (MscL mutant G22C [1]; [9]): significantly slower

Molecule: 2-aminoethyl methanethiosulfonate [MTSEA]
effect of attachment to the cysteine on gating under patch clamp (MscL mutant G22C [5]): gate spontaneously
kinetics of calcein release compared to MTSET (MscL mutant G22C [1]; [9]): significantly slower

Molecule: mertiatide [MAG3]
time to 50% urinary excretion ([6]; intravenous): 3 min
time to 50% urinary excretion ([6]; subcutaneous): > 12 min
active tubular secretion [7]: 600 mL/min

Molecule: C[N+](C)(C)CCSS(C)(=O)=O [MTSET, [2-(Trimethylammonium)ethyl]methanethiosulfonate]
effect of attachment to the cysteine on gating under patch clamp (MscL mutant G22C [5]): gate spontaneously
FITC-insulin efflux upon activation (MscL mutant G22C [8]): release of FITC-insulin
encapsulated calcein released (MscL mutant G22C [1]; [10]): 80%
time for half of the MscL mediated efflux (MscL mutant G22C [1]; [10]): ≤ 7 s
calcein release upon addition (MscL mutant G22C [1]; DOPC:Cholesterol 80:20 liposomes with vs without MscL mutant G22C): effective release of calcein
effect of attachment on pressure sensitivity and gating (MscL mutant G22C [2]; attached to MscL mutant G22C in spheroplasts): spontaneous gating of the channel

Molecule: Br.BrCc1ccncc1 [BP, 4-(bromomethyl)pyridine hydrobromide]
channel behavior of labeled MscL mutant G22C (MscL; pH 5.2, +20 mV): prefers not to open completely but only to subconducting states and the dwell times get shorter
channel behavior of labeled MscL mutant G22C (MscL; pH 7.2, +20 mV): behaves as an unlabeled channel
